Where two headings read alike, the source gives them in different places.

The record followed here is publication PMC10004634 (PLOS ONE, 2023).

Targets include CSNK1G3 (Homo sapiens, UniProt Q9Y6M4); FER (Homo sapiens, UniProt P16591); PIK3CA(Q546K) (Homo sapiens, UniProt P42336, Q546K); DAPK2 (Homo sapiens, UniProt Q9UIK4); RET(V804M) (Homo sapiens, UniProt P07949, V804M); BRAF(V600E) (Homo sapiens, UniProt P15056, V600E).
Common to all, as to experiment: biochemical
Common to all, as to design: KINOMEscan scanMAX competition binding, DNA-tagged kinases, qPCR read-out, percent control at 300 nM

In the next test the target is T1, PIK3C2G (Homo sapiens, UniProt O75747).
T1 sequence (O75747 1-1486): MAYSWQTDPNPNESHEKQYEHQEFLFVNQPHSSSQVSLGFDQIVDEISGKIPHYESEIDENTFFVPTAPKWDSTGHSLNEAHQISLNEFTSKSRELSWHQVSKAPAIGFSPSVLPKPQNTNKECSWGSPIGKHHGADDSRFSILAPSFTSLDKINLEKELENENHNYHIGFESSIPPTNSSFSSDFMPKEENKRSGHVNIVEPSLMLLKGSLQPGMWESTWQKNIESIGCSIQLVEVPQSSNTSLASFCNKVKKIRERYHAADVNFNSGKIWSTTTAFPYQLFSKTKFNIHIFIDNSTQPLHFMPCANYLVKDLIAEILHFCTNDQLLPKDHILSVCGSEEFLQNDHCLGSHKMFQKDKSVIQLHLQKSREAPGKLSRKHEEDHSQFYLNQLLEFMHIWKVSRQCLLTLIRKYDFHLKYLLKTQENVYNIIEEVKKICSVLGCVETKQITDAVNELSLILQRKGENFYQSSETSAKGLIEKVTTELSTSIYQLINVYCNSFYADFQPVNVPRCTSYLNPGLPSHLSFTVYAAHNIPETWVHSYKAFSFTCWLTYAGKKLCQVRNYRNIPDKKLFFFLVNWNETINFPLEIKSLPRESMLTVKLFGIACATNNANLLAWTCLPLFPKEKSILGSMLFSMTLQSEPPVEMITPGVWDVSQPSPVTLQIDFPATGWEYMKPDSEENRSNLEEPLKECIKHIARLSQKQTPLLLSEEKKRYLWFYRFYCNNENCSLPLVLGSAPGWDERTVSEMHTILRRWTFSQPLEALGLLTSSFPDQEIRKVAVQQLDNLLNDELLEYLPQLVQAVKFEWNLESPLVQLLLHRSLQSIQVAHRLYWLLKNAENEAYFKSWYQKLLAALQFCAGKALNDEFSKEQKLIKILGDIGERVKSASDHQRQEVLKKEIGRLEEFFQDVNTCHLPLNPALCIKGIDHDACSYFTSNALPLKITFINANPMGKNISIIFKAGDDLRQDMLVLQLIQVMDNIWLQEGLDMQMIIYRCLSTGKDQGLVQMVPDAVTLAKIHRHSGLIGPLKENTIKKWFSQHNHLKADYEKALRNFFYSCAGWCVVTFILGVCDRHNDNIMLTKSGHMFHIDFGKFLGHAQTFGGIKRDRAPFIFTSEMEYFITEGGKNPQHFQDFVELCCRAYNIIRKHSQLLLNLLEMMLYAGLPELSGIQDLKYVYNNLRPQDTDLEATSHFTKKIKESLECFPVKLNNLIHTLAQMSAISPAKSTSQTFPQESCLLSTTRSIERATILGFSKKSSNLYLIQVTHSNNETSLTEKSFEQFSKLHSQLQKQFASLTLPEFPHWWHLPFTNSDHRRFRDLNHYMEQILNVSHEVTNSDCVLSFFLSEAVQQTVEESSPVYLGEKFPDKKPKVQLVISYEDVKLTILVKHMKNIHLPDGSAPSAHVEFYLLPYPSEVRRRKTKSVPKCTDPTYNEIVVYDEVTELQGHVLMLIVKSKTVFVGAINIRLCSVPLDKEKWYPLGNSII

The target in the next test is T2, MEK1 (Homo sapiens, UniProt Q02750).
T2 construct: gene MAP2K1
T2 sequence (Q02750 whole entry): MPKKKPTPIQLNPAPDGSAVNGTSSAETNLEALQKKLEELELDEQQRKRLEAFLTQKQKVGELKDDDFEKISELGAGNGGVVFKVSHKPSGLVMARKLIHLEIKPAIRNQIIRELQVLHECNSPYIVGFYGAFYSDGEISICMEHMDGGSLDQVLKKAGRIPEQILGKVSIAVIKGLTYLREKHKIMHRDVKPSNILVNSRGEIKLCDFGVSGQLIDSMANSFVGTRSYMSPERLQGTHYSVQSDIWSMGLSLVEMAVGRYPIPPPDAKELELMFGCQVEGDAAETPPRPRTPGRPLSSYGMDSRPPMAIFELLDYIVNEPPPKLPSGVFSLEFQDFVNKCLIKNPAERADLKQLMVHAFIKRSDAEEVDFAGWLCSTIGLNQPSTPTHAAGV

[1] abbreviates: read-out: Percent control / Tirabrutinib.
Where [2] appears, read: read-out: Percent control / Acalabrutinib.
Setting [3] is: read-out: Percent control / Ibrutinib.
The mark [4] stands for this setting: read-out: Percent control / Zanubrutinib.

Sequence of DAPK2 (Q9UIK4 whole entry): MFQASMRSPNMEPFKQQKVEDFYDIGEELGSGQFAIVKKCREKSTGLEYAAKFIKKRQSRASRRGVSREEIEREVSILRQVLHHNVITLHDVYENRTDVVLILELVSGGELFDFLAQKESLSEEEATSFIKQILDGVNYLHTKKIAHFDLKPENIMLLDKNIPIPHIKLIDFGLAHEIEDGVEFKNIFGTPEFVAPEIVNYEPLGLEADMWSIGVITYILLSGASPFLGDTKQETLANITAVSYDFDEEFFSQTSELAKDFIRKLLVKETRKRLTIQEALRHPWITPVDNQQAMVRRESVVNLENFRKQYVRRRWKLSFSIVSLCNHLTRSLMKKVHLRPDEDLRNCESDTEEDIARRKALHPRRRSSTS
Sequence of FER (P16591 whole entry): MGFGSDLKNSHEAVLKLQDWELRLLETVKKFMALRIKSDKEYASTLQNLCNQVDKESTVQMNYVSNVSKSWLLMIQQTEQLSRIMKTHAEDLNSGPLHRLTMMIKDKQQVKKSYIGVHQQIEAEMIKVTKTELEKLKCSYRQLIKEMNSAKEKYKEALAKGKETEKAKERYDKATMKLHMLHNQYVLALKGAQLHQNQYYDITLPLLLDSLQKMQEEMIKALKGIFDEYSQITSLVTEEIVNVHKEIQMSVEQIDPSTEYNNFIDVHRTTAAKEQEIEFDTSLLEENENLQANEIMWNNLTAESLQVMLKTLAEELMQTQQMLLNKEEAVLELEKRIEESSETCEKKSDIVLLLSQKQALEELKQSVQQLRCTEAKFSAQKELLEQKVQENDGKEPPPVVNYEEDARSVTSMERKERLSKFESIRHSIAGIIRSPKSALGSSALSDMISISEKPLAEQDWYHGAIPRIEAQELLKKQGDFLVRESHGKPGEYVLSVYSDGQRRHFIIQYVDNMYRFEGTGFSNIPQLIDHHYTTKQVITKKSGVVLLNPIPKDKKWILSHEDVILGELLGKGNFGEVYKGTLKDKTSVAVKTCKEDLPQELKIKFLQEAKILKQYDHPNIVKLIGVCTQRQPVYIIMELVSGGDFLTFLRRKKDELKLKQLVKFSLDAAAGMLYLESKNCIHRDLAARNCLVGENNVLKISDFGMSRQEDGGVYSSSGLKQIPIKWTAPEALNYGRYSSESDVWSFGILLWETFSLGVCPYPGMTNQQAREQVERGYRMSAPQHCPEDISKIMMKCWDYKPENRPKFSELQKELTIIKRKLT
Sequence of BRAF(V600E) (P15056 whole entry V600E): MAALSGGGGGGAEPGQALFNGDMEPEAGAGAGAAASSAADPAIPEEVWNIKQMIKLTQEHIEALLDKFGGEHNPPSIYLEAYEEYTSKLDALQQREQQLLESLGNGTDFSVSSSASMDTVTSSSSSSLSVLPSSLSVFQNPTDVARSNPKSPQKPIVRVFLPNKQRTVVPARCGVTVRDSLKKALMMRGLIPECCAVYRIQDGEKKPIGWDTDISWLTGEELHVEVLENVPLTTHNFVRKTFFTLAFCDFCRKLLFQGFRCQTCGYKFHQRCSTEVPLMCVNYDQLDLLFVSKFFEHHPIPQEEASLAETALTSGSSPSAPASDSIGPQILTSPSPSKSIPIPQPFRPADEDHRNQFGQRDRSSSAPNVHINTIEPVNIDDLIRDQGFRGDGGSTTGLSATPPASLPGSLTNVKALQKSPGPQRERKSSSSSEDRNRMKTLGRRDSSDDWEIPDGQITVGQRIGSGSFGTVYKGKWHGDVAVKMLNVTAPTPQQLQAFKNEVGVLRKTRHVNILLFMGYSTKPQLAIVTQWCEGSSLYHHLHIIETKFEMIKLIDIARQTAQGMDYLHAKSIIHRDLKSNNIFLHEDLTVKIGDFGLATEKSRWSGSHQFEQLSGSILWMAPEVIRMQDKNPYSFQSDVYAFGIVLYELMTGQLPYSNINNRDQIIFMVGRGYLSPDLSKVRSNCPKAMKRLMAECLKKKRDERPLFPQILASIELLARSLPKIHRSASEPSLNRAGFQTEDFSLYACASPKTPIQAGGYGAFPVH
Sequence of PIK3CA(Q546K) (P42336 whole entry Q546K): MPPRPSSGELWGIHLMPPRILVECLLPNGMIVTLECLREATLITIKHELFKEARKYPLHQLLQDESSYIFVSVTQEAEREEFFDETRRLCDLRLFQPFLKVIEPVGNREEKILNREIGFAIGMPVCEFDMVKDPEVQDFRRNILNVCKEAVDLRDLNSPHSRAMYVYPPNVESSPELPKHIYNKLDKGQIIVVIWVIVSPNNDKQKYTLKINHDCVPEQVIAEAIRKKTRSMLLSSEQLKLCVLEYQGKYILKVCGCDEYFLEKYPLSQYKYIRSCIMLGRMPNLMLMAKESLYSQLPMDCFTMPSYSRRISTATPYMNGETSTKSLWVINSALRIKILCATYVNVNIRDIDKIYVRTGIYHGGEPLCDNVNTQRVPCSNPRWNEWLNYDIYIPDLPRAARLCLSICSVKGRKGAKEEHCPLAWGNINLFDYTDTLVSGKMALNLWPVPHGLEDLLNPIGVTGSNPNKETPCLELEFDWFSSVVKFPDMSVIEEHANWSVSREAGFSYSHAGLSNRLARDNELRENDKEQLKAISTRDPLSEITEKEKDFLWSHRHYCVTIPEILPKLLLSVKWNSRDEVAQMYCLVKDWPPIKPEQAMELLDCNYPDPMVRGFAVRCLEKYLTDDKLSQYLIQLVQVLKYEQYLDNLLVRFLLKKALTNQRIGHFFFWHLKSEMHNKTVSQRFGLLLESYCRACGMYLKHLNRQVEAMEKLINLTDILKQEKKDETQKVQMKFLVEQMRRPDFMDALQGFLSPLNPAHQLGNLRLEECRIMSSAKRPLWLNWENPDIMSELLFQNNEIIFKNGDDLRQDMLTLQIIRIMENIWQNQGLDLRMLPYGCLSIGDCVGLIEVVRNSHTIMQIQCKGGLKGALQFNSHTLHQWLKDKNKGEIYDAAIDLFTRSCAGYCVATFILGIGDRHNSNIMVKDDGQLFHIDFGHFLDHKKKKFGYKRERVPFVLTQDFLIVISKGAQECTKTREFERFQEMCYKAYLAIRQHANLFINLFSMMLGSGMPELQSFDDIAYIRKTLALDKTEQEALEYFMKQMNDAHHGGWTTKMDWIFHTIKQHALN
Sequence of CSNK1G3 (Q9Y6M4 whole entry): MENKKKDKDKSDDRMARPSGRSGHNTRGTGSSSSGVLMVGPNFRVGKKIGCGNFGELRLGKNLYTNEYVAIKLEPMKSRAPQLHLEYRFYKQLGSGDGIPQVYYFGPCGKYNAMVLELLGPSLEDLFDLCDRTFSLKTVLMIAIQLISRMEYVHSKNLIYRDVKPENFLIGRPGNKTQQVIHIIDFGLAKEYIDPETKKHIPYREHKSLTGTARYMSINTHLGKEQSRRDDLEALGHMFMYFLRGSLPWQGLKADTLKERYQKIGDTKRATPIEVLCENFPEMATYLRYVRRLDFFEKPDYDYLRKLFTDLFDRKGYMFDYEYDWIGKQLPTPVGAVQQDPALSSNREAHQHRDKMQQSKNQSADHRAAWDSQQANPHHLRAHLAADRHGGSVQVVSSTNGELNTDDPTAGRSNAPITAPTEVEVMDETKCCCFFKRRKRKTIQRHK
Sequence of RET(V804M) (P07949 whole entry V804M): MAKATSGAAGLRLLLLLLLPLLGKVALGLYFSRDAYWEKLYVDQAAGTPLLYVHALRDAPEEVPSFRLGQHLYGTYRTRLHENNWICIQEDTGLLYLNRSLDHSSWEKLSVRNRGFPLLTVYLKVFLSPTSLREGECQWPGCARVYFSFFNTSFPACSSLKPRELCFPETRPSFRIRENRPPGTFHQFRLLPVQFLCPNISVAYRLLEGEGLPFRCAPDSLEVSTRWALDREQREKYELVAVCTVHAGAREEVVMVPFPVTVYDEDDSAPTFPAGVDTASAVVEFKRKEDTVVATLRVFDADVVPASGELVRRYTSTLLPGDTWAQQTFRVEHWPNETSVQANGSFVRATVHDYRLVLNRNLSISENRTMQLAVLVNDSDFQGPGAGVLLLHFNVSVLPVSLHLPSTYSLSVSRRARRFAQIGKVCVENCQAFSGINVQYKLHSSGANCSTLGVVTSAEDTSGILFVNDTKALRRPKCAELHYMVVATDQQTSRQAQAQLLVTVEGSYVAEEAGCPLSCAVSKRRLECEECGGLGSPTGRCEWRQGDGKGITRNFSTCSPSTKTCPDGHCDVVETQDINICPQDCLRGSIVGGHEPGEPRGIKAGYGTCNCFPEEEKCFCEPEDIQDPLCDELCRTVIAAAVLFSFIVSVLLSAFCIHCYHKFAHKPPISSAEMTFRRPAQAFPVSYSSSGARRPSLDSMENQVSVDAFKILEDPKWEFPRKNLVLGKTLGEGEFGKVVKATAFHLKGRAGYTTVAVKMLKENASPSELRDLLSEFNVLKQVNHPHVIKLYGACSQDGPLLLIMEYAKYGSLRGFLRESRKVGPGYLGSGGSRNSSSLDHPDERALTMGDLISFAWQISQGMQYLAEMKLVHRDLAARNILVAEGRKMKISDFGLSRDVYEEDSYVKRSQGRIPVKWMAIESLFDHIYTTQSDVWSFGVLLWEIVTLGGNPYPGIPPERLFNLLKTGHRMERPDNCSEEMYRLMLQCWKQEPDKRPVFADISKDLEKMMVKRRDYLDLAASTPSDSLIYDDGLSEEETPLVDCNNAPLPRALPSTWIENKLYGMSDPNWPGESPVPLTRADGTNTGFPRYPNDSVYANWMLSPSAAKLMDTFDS

Regarding `CC#CC(=O)N1CC[C@@H](n2c(=O)n(-c3ccc(Oc4ccccc4)cc3)c3c(N)ncnc32)C1` [Tirabrutinib], the remaining binding at 0.3 µM was 99% on CSNK1G3 (setting [1]); 93% at FER (setting [1]); 78% on PIK3CA(Q546K) (setting [1]); 98% at PIK3C2G (setting [1]); 88% at DAPK2 (setting [1]).

As to `CC#CC(=O)N1CCC[C@H]1c1nc(-c2ccc(C(=O)Nc3ccccn3)cc2)c2c(N)nccn12` [Acalabrutinib], the remaining binding at 0.3 µM amounted to 91% at CSNK1G3 (setting [2]); 85% at RET(V804M) (setting [2]); 84% on FER (setting [2]); 96% at MEK1 (setting [2]); 88% on PIK3CA(Q546K) (setting [2]); 70% on BRAF(V600E) (setting [2]). Also, the remaining binding at 0.3 µM on PIK3C2G (setting [2]) was 74%.

With `C=CC(=O)N1CCC[C@@H](n2nc(-c3ccc(Oc4ccccc4)cc3)c3c(N)ncnc32)C1` [Ibrutinib], the remaining binding at 0.3 µM is 94% on RET(V804M) (setting [3]); 94% at FER (setting [3]); 91% at MEK1 (setting [3]); 62% on PIK3CA(Q546K) (setting [3]); 98% on BRAF(V600E) (setting [3]); 97% at PIK3C2G (setting [3]). Also, the remaining binding at 0.3 µM at DAPK2 (setting [3]) was found to be 79%.

For `C=CC(=O)N1CCC([C@@H]2CCNc3c(C(N)=O)c(-c4ccc(Oc5ccccc5)cc4)nn32)CC1` [Zanubrutinib], the remaining binding at 0.3 µM at CSNK1G3 (setting [4]) is 90%; at RET(V804M) (setting [4]), 94%; on FER (setting [4]), 100%; on MEK1 (setting [4]), 4.1%; at PIK3CA(Q546K) (setting [4]), 100%; on BRAF(V600E) (setting [4]), 88%. For the same molecule, the results for the remaining binding at 0.3 µM on PIK3C2G (setting [4]) and at DAPK2 (setting [4]) were 74% and 91%, respectively.
